Laboratory results: US12545685B2 (Daiichi Sankyo Company, Limited, priority 2011, dated 2026)

How the values were obtained:
[1] = molecular target: T1, Mdm2/p53 binding (GST-Mdm2 / His-p53) (Homo sapiens, UniProt Q00987, L33E); assay: Mdm2/p53 binding assay (HTRF, His-p53 and GST-Mdm2); settings: His-p53 (aa 1-132) and GST-Mdm2 (aa 25-108, L33E) 6.25 nM each; 25°C, 1 hour; values given as ranges
T1 construct: Mdm2 partial protein having Mdm2 amino acids at positions 25 to 108
Outline: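 Binding was detected by HTRF (ex 320 nm, em 620/665 nm) after 1 h at 25 °C, using Eu-cryptate anti-GST and XL665 anti-His antibodies. The protein pair was GST-Mdm2 (residues 25–108, L33E) with His-p53 (residues 1–132), each 6.25 nM in the protein dilution. T/C used no-compound control and no-p53 background, and IC50 came from sigmoid fitting.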

[2] = tested on: human lung cancer-derived cell line NCI-H460 having wild-type p53; assay: Cell growth inhibition assay (MTT); assay type: cell-based; settings: 72 h, NCI-H460 cells, 3 days culture, values given as ranges, read-out: 50% growth inhibition concentration (GI50 value)
Outline: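 NCI-H460 cells (wild-type p53) seeded at 500 cells/well in RPMI1640 with 10% FBS, then treated the next day and grown 3 days at 37 °C. MTT read-out at OD 540 nm (660 nm reference), taken at dosing and at day 3. GI50 derived from T/C (%) dose-response curves.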

T1 sequence (Q00987 25-108 L33E): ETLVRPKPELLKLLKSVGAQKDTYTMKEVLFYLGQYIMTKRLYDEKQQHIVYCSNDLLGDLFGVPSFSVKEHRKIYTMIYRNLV

SMILES	IC50 [1] [µM]	GI50 [2] [µM]
CN(C)C(=O)[C@@H]1CC[C@@H](NC(=O)[C@@H]2NC3(CCC(C)(C)CC3)[C@@]3(C(=O)Nc4cc(Cl)ccc43)[C@H]2c2ccnc(Cl)c2F)CO1 [Example 100, (3′R, 4′S,5′R)-6″-chloro-4′-(2-chloro-3-fluoropyridin-4-yl)-N-[(3R,6S)-6-(dimethylcarbamoyl)tetrahydro-2H-pyran-3-yl]-4,4-dimethyl-2″-oxo-1″,2″-dihydrodispiro[cyclohexane-1,2′-pyrrolidine-3′,3′″-indole]-5′-carboxamide]	0.001 to 0.05	< 0.1
CC1(C)CCC2(CC1)N[C@@H](C(=O)N[C@@H]1CC[C@@H](C(=O)N3CC(O)C3)OC1)[C@H](c1ccnc(Cl)c1F)[C@]21C(=O)Nc2cc(Cl)ccc21 [Example 107, (3′R, 4′S,5′R)-6″-chloro-4′-(2-chloro-3-fluoropyridin-4-yl)-N-{(3R,6S)-6-[(3-hydroxyazetidin-1-yl)carbonyl]tetrahydro-2H-pyran-3-yl}-4,4-dimethyl-2″-oxo-1″,2″-dihydrodispiro[cyclohexane-1,2′-pyrrolidine-3′,3″-indole]-5′-carboxamide]	0.001 to 0.05	0.1 to 0.5
CC1(C)CCC2(CC1)N[C@@H](C(=O)N[C@@H]1CC[C@@H](C(=O)NC3CCOCC3)OC1)[C@H](c1ccnc(Cl)c1F)[C@]21C(=O)Nc2cc(Cl)ccc21 [Example 109, (3′R, 4′S,5′R)-6″-chloro-4′-(2-chloro-3-fluoropyridin-4-yl)-4,4-dimethyl-2″-Oxo-N-[(3R,6S)-6-(tetrahydro-2H-pyran-4-ylcarbamoyl)tetrahydro-2H-pyran-3-yl]-1″,2″-dihydrodispiro[cyclohexane-1,2′-pyrrolidine-3′,3″-indole]-5′-carboxamide]	0.001 to 0.05	0.1 to 0.5
CC1(C)CCC2(CC1)N[C@@H](C(=O)N[C@@H]1CC[C@@H](C(=O)N3CCOCC3)OC1)[C@H](c1ccnc(Cl)c1F)[C@]21C(=O)Nc2cc(Cl)ccc21 [Example 110, (3′R, 4′S,5′R)-6″-chloro-4′-(2-chloro-3-fluoropyridin-4-yl)-4,4-dimethyl-N-[(3R,6S)-6-(morpholin-4-ylcarbonyl)tetrahydro-2H-pyran-3-yl]-2″-oxo-1″,2″-dihydrodispiro[cyclohexane-1,2′-pyrrolidine-3′,3″-indole]-5′-carboxamide]	0.001 to 0.05	< 0.1
CC1(C)CCC2(CC1)N[C@@H](C(=O)N[C@@H]1CC[C@@H](CC(N)=O)OC1)[C@H](c1ccnc(Cl)c1F)[C@]21C(=O)Nc2cc(Cl)ccc21 [Example 111, (3′R, 4′S,5′R)—N-[(3R,6S)-6-(2-amino-2-oxoethyl)tetrahydro-2H-pyran-3-yl]-6″-chloro-4′-(2-chloro-3-fluoropyridin-4-yl)-4,4-dimethyl-2″-oxo-1″,20-dihydrodispiro[cyclohexane-1,2′-pyrrolidine-3′,3″-indole]-5′-carboxamide]	0.001 to 0.05	0.1 to 0.5
CC1(C)CCC2(CC1)N[C@@H](C(=O)N[C@H]1C[C@H](c3nnco3)C1)[C@H](c1ccnc(Cl)c1F)[C@]21C(=O)Nc2cc(Cl)ccc21 [Example 112, (3′R, 4′S, S′R)-6″-chloro-4′-(2-chloro-3-fluoropyridin-4-yl)-4,4-dimethyl-N-[trans-3-(1,3,4-oxadiazol-2-yl)cyclobutyl]-2″-oxo-1″,2″-dihydrodispiro[cyclohexane-1,2′-pyrrolidine-3′,3″-indole]-5-carboxamide]	0.05 to 0.1	0.1 to 0.5
CN(C)C(=O)[C@H]1CC[C@H](NC(=O)[C@@H]2NC3(CCC(C)(C)CC3)[C@@]3(C(=O)Nc4cc(Cl)ccc43)[C@H]2c2ccnc(Cl)c2F)CC1 [Example 113, (3′R, 4′S,5′R)-6″-chloro-4′-(2-chloro-3-fluoropyridin-4-yl)-N-[trans-4-(dimethylcarbamoyl)cyclohexyl]-4,4-dimethyl-2″-oxo-1″,2″-dihydrodispiro[cyclohexane-1,2′-pyrrolidine-3′,3″-indole]-5′-carboxamide]	0.001 to 0.05	< 0.1
CC1(C)CCC2(CC1)N[C@@H](C(=O)N[C@H]1C[C@H](C(N)=O)C1)[C@H](c1ccnc(Cl)c1F)[C@]21C(=O)Nc2cc(Cl)ccc21 [Example 114, (3′R, 4′S,5′R)—N-(trans-3-carbamoylcyclobutyl)-6″-chloro-4′-(2-chloro-3-fluoropyridin-4-yl)-4,4-dimethyl-2″-oxo-1″,2″-dihydrodispiro[cyclohexane-1,2′-pyrrolidine-3′,3″-indole]-5′-carboxamide]	0.001 to 0.05	0.5 to 1
CN(C)C(=O)[C@H]1C[C@H](NC(=O)[C@@H]2NC3(CCC(C)(C)CC3)[C@@]3(C(=O)Nc4cc(Cl)ccc43)[C@H]2c2ccnc(Cl)c2F)C1 [Example 115, (3′R, 4′S,5′R)-6″-chloro-4′-(2-chloro-3-fluoropyridin-4-yl)-N-[trans-3-(dimethylcarbamoyl)cyclobutyl]-4,4-dimethyl-2″-oxo-1″,2″-dihydrodispiro[cyclohexane-1,2′-pyrrolidine-3′,3″-indole]-5′-carboxamide]	0.001 to 0.05	0.1 to 0.5
CCN(CC)C(=O)[C@@H]1CC[C@@H](NC(=O)[C@@H]2NC3(CCC(C)(C)CC3)[C@@]3(C(=O)Nc4cc(Cl)ccc43)[C@H]2c2ccnc(Cl)c2F)CO1 [Example 116, (3′R, 4′S,5′R)-6″-chloro-4′-(2-chloro-3-fluoropyridin-4-yl)-N-[(3R,6S)-6-(diethylcarbamoyl)tetrahydro-2H-pyran-3-yl]-4,4-dimethyl-2″-oxo-1″,2″-dihydrodispiro[cyclohexane-1,2′-pyrrolidine-3′,3″-indole]-5′-carboxamide]	0.001 to 0.05	< 0.1
CCN(CC)C(=O)[C@@H]1CC[C@@H](NC(=O)[C@@H]2NC3(CCC(C)(C)CC3)[C@@]3(C(=O)Nc4nc(Cl)ccc43)[C@H]2c2ccnc(Cl)c2F)CO1 [Example 117, (3′R, 4′S,5′R)-6″-chloro-4′-(2-chloro-3-fluoropyridin-4-yl)-N-[(3R,6S)-6-(diethylcarbamoyl)tetrahydro-2H-pyran-3-yl]-4,4-dimethyl-2″-oxo-1″,2″-dihydrodispiro[cyclohexane-1,2′-pyrrolidine-3′,3″-pyrrolo[2,3-b]pyridine]-5′-carboxamide]	0.001 to 0.05	0.1 to 0.5
CC1(C)CCC2(CC1)N[C@@H](C(=O)N[C@H]1C[C@H](C(C)(C)O)C1)[C@H](c1ccnc(Cl)c1F)[C@]21C(=O)Nc2cc(Cl)ccc21 [Example 154, (3′R, 4′S,5′R)-6′-chloro-4′-(2-chloro-3-fluoropyridin-4-yl)-N-[trans-3-(2-hydroxypropan-2-yl)cyclobutyl]-4,4-dimethyl-2″-oxo-1″,2″-dihydrodispiro[cyclohexane-1,2′-pyrrolidine-3′,3″-indole]-5′-carboxamide]	0.05 to 0.1	0.1 to 0.5
Cc1nnc([C@@H]2CC[C@@H](NC(=O)[C@@H]3NC4(CCC(C)(C)CC4)[C@@]4(C(=O)Nc5cc(Cl)ccc54)[C@H]3c3ccnc(Cl)c3F)CO2)o1 [Example 156]	0.001 to 0.05	< 0.1
CC1(C)CCC2(CC1)N[C@@H](C(=O)N[C@@H]1CC[C@@H](CCO)OC1)[C@H](c1ccnc(Cl)c1F)[C@]21C(=O)Nc2cc(Cl)ccc21 [Example 160, (3′R, 4′S,5′R)-6″-chloro-4′-(2-chloro-3-fluoropyridin-4-yl)-N-[(3R,6S)-6-(2-hydroxyethyl)tetrahydro-2H-pyran-3-yl]-4,4-dimethyl-2″-oxo-1″,2″-dihydrodispiro[cyclohexane-1,2′-pyrrolidine-3′,3″-indole]-5′-carboxamide]	0.05 to 0.1	< 0.1
